Experimental findings from patent US9212163B2, “Pesticidal compositions and processes related thereto” (Dow AgroSciences LLC, priority 2012, dated 2015) are described below.

Molecules are shown by their SMILES.

The subject of the test is Beet Armyworm (BAW) (Spodoptera exigua). Kind of test: Bioassay on Beet Armyworm (BAW), 128-well diet tray assay. Format: in vivo. Conditions: Table 3: Assay Results Part 1. Here is the method:
Certain molecules disclosed in this document were tested against BAW, CEW and CL using procedures described in the following examples. In the reporting of the results, the “BAW & CEW & CL Rating Table” was used (See Table Section).
Bioassays on BAW (Spodoptera exigua)
Bioassays on BAW were conducted using a 128-well diet tray assay. One to five second instar BAW larvae were placed in each well (3 mL) of the diet tray that had been previously filled with 1 mL of artificial diet to which 50 μg/cm^2 of the test compound (dissolved in 50 μL of 90:10 acetone-water mixture) had been applied (to each of eight wells) and then allowed to dry. Trays were covered with a clear self-adhesive cover, and held at 25° C., 14:10 light-dark for five to seven days. Percent mortality was recorded for the larvae in each well; activity in the eight wells was then averaged. The results are indicated in the tables entitled “Table 3: Assay Results Part 1” and “Table 4: Assay Results Part 2” (See Table Section).

Take `Cc1cc(/C=C/C(c2cc(Cl)cc(Cl)c2)C(F)(F)F)ccc1C(=O)NCc1ccc(Cl)nc1` (stereo not shown) [AC7]: the “BAW Rating” value was “A (50-100)”. The entry for `Cc1cc(/C=C/C(c2cc(Cl)cc(Cl)c2)C(F)(F)F)ccc1C(=O)NCc1ccccc1F` (stereo not shown) [AC9] is “A (50-100)”; for `Cc1cc(/C=C/C(c2cc(Cl)cc(Cl)c2)C(F)(F)F)ccc1C(=O)NC1CSC1` (stereo not shown) [AC10] it is “A (50-100)”; for `Cc1cc(/C=C/C(c2cc(Cl)cc(Cl)c2)C(F)(F)F)ccc1C(=O)NCc1ccccc1` (stereo not shown) [AC11] it is “A (50-100)”. With `Cc1cc(/C=C/C(c2cc(Cl)cc(Cl)c2)C(F)(F)F)ccc1C(=O)NCc1ccccn1` (stereo not shown) [AC12] the entry was “A (50-100)”; with `Cc1cc(/C=C/C(c2cc(Cl)cc(Cl)c2)C(F)(F)F)ccc1C(=O)NC1CS(=O)(=O)C1` (stereo not shown) [AC13], “A (50-100)”; with `Cc1cc(/C=C/C(c2cc(Cl)cc(Cl)c2)C(F)(F)F)ccc1C(=O)NCc1cnc(Cl)s1` (stereo not shown) [AC15], “A (50-100)”. With `Cc1cc(/C=C/C(c2cc(Cl)cc(Cl)c2)C(F)(F)F)ccc1C(=O)NC(C)(C)c1ccccn1` (stereo not shown) [AC16] the entry was “A (50-100)”. `Cc1cc(/C=C/C(c2cc(Cl)cc(Cl)c2)C(F)(F)F)ccc1C(=O)NNc1ccccc1F` (stereo not shown) [AC17]: the “BAW Rating” value is listed as “A (50-100)”.

For the compound `Cc1cc(/C=C/C(c2cc(Cl)cc(Cl)c2)C(F)(F)F)ccc1C(=O)NCc1ncccn1` (stereo not shown) [AC18], the “BAW Rating” value was “A (50-100)”. The entry for `Cc1cc(/C=C/C(c2cc(Cl)cc(Cl)c2)C(F)(F)F)ccc1C(=O)NCc1ccoc1` (stereo not shown) [AC20] is “A (50-100)”; for `Cc1cc(/C=C/C(c2cc(Cl)c(Cl)c(Cl)c2)C(F)(F)F)ccc1C(=O)NCc1ccc(Cl)nc1` (stereo not shown) [AC22] it is “A (50-100)”; for `Cc1cc(/C=C/C(c2cc(Cl)c(Cl)c(Cl)c2)C(F)(F)F)ccc1C(=O)NC1CSC1` (stereo not shown) [AC23] it is “A (50-100)”. With `Cc1cc(/C=C/C(c2cc(Cl)c(Cl)c(Cl)c2)C(F)(F)F)ccc1C(=O)NCc1cnc(Cl)s1` (stereo not shown) [AC26] the entry was “A (50-100)”; with `Cc1cc(/C=C/C(c2cc(Cl)c(Cl)c(Cl)c2)C(F)(F)F)ccc1C(=O)NC(C)(C)c1ccccn1` (stereo not shown) [AC27], “A (50-100)”; with `O=C(NCc1ccc(Cl)nc1)c1ccc(/C=C/C(c2cc(Cl)c(Cl)c(Cl)c2)C(F)(F)F)cc1Cl` (stereo not shown) [AC28], “A (50-100)”. As for `O=C(NC1CSC1)c1ccc(/C=C/C(c2cc(Cl)c(Cl)c(Cl)c2)C(F)(F)F)cc1Cl` (stereo not shown) [AC29], the “BAW Rating” value is “A (50-100)”.

As to `O=C(NC1CS(=O)(=O)C1)c1ccc(/C=C/C(c2cc(Cl)c(Cl)c(Cl)c2)C(F)(F)F)cc1Cl` (stereo not shown) [AC30], the “BAW Rating” value is reported as “A (50-100)”. On to `O=C(NCc1ccc(Cl)nc1)c1ccc(/C=C/C(c2cc(Cl)c(Cl)c(Cl)c2)C(F)(F)F)cc1Br` (stereo not shown) [AC31], for which the “BAW Rating” value is on record as “A (50-100)”. The entry for `O=C(NC1CSC1)c1ccc(/C=C/C(c2cc(Cl)c(Cl)c(Cl)c2)C(F)(F)F)cc1Br` (stereo not shown) [AC32] is “A (50-100)”.

For `O=C(NC1CS(=O)(=O)C1)c1ccc(/C=C/C(c2cc(Cl)c(Cl)c(Cl)c2)C(F)(F)F)cc1Br` (stereo not shown) [AC33], the “BAW Rating” value is reported as “A (50-100)”. With `O=C(NC1CSC1)c1ccc(/C=C/C(c2cc(Cl)c(Cl)c(Cl)c2)C(F)(F)F)cc1C(F)(F)F` (stereo not shown) [AC34] the entry was “A (50-100)”; with `O=C(NC1CS(=O)(=O)C1)c1ccc(/C=C/C(c2cc(Cl)c(Cl)c(Cl)c2)C(F)(F)F)cc1C(F)(F)F` (stereo not shown) [AC35], “A (50-100)”; with `O=C(NCc1ccc(Cl)nc1)c1ccc(/C=C/C(c2cc(Cl)c(Cl)c(Cl)c2)C(F)(F)F)cc1C(F)(F)F` (stereo not shown) [AC36], “A (50-100)”. `Cc1cc(/C=C/C(c2ccc(Cl)c(Cl)c2)C(F)(F)F)ccc1C(=O)NCc1ccc(Cl)nc1` (stereo not shown) [AC37]: the “BAW Rating” value is “A (50-100)”. The entry for `Cc1cc(/C=C/C(c2cc(Cl)c(F)c(Cl)c2)C(F)(F)F)ccc1C(=O)NCc1ccc(Cl)nc1` (stereo not shown) [AC38] is “A (50-100)”; for `Cc1cc(/C=C/C(c2cc(Cl)cc(Cl)c2)C(F)(F)F)ccc1C(=O)NCc1cncnc1` (stereo not shown) [AC39, 4-((E)-3-(3,5-Dichlorophenyl)-4,4,4-trifluorobut-1-enyl)-2-methyl-N-((pyrimidin-5-yl)methyl)benzamide] it is “A (50-100)”. The entry for `Cc1cc(/C=C/C(c2cc(Cl)cc(Cl)c2)C(F)(F)F)ccc1C(=O)NCC(=O)NC1CC1` (stereo not shown) [AC40] is “A (50-100)”; for `Cc1cc(/C=C/C(c2cc(Cl)cc(Cl)c2)C(F)(F)F)ccc1C(=O)NCC(=O)NC1CSC1` (stereo not shown) [AC41] it is “A (50-100)”.

On to `Cc1cc(/C=C/C(c2cc(Cl)cc(Cl)c2)C(F)(F)F)ccc1C(=O)NCc1nc2ccccc2s1` (stereo not shown) [AC42], for which the “BAW Rating” value is given as “A (50-100)”.

Take `Cc1cc(/C=C/C(c2cc(Cl)cc(Cl)c2)C(F)(F)F)ccc1C(=O)NCc1cnccn1` (stereo not shown) [AC43]: the “BAW Rating” value was “A (50-100)”. The entry for `Cc1cc(/C=C/C(c2cc(Cl)cc(Cl)c2)C(F)(F)F)ccc1C(=O)NN(C)c1ccccc1F` (stereo not shown) [AC45] is “A (50-100)”; for `Cc1cc(/C=C/C(c2cc(Cl)cc(Cl)c2)C(F)(F)F)ccc1C(=O)NCc1ccc(Cl)cc1` (stereo not shown) [AC48] it is “A (50-100)”. With `O=C(NCc1ccc(Cl)nc1)c1ccc(/C=C/C(c2cc(Cl)cc(Cl)c2)C(F)(F)F)cc1F` (stereo not shown) [AC49] the entry was “A (50-100)”; with `Cc1cc(/C=C/C(c2cc(Cl)cc(Cl)c2)C(F)(F)F)ccc1C(=O)NCc1nccn1C` (stereo not shown) [AC50], “A (50-100)”; with `Cc1cc(/C=C/C(c2cc(Cl)cc(Cl)c2)C(F)(F)F)ccc1C(=O)NCC(=O)N(C)CC(F)(F)F` (stereo not shown) [AC51], “A (50-100)”. With `Cc1cc(/C=C/C(c2cc(Cl)c(F)c(Cl)c2)C(F)(F)F)ccc1C(=O)NC1CCOCC1` (stereo not shown) [AC52] the entry was “A (50-100)”. For the compound `Cc1cc(/C=C/C(c2cc(Cl)c(F)c(Cl)c2)C(F)(F)F)ccc1C(=O)NCc1ccc(Cl)cn1` (stereo not shown) [AC53], the “BAW Rating” value is recorded as “A (50-100)”. The entry for `Cc1cc(/C=C/C(c2cc(Cl)c(F)c(Cl)c2)C(F)(F)F)ccc1C(=O)NCc1ccnc(Cl)c1` (stereo not shown) [AC54] is “A (50-100)”; for `CC(C)(C)OC(=O)CNC(=O)c1ccc(/C=C/C(c2cc(Cl)c(Cl)c(Cl)c2)C(F)(F)F)cc1Br` (stereo not shown) [AC58] it is “A (50-100)”; for `Cc1cc(/C=C/C(c2cc(Cl)cc(Cl)c2)C(F)(F)F)ccc1C(=O)Nc1ccc(Cl)nc1` (stereo not shown) [AC59] it is “A (50-100)”. With `O=C(NC1CSC1)c1ccc(/C=C/C(c2cc(Cl)cc(Cl)c2)C(F)(F)F)cc1F` (stereo not shown) [AC61] the entry was “A (50-100)”; with `O=C(CNC(=O)c1ccc(/C=C/C(c2cc(Cl)cc(Cl)c2)C(F)(F)F)cc1F)NCC(F)(F)F` (stereo not shown) [AC62], “A (50-100)”. As for `O=C(NCc1ccc(Cl)nc1)c1ccc(/C=C/C(c2cc(Cl)c(F)c(Cl)c2)C(F)(F)F)cc1Br` (stereo not shown) [AC63], the “BAW Rating” value is listed as “A (50-100)”. The entry for `O=C(CNC(=O)c1ccc(/C=C/C(c2cc(Cl)c(Cl)c(Cl)c2)C(F)(F)F)cc1Cl)NCC(F)(F)F` (stereo not shown) [AC64, (E)-2-Chloro-N-(2-oxo-2-((2,2,2-trifluoroethyl)amino)ethyl)-4-(4,4,4-trifluoro-3-(3,4,5-trichlorophenyl)but-1-en-1-yl)benzamide] is “A (50-100)”. Take `O=C(NCc1ccc(Cl)nc1)c1ccc(/C=C/C(c2cc(Cl)c(F)c(Cl)c2)C(F)(F)F)cc1F` (stereo not shown) [AC65]: the “BAW Rating” value is listed as “A (50-100)”.

In the case of `O=C(CNC(=O)c1ccc(/C=C/C(c2cc(Cl)c(Cl)c(Cl)c2)C(F)(F)F)cc1Br)NCC(F)(F)F` (stereo not shown) [AC66], the “BAW Rating” value was “A (50-100)”. The entry for `O=C(NC1CSC1)c1ccc(/C=C/C(c2cc(Cl)c(F)c(Cl)c2)C(F)(F)F)cc1F` (stereo not shown) [AC67] is “A (50-100)”; for `O=C(CNC(=O)c1ccc(/C=C/C(c2cc(Cl)c(F)c(Cl)c2)C(F)(F)F)cc1F)NCC(F)(F)F` (stereo not shown) [AC68] it is “A (50-100)”.

With `Cc1cc(/C=C/C(c2cc(Cl)c(F)c(Cl)c2)C(F)(F)F)ccc1C(=O)NCC(=O)NCC(F)(F)F` (stereo not shown) [AC69], the “BAW Rating” value was “A (50-100)”. Consider `COc1cc(/C=C/C(c2cc(Cl)c(F)c(Cl)c2)C(F)(F)F)ccc1C(=O)NC1CSC1` (stereo not shown) [AC71], for which the “BAW Rating” value is listed as “A (50-100)”. The entry for `CCc1cc(/C=C/C(c2cc(Cl)c(F)c(Cl)c2)C(F)(F)F)ccc1C(=O)NCc1ccc(Cl)nc1` (stereo not shown) [AC72] is “A (50-100)”; for `O=C(NCc1ccc(C(F)(F)F)nc1)c1ccc(/C=C/C(c2cc(Cl)c(Cl)c(Cl)c2)C(F)(F)F)cc1Br` (stereo not shown) [AC75] it is “A (50-100)”. With `Cc1cc(/C=C/C(c2cc(Cl)c(F)c(Cl)c2)C(F)(F)F)ccc1C(=O)NCc1cc(Cl)ccn1` (stereo not shown) [AC77] the entry was “A (50-100)”. The entry for `Cc1cc(/C=C/C(c2cc(Cl)c(Cl)c(Cl)c2)C(F)(F)F)ccc1C(=O)NCC(=O)NCC(F)(F)F` (stereo not shown) [AC78] is “A (50-100)”; for `O=C(CNC(=O)c1ccc(/C=C/C(c2cc(Cl)c(F)c(Cl)c2)C(F)(F)F)cc1Br)NCC(F)(F)F` (stereo not shown) [AC79, (E)-2-Bromo-4-(3-(3,5-dichloro-4-fluorophenyl)-4,4,4-trifluorobut-1-en-1-yl)-N-(2-oxo-2-((2,2,2-trifluoroethyl)amino)ethyl)benzamide] it is “A (50-100)”.

In the case of `CCc1cc(/C=C/C(c2cc(Cl)c(F)c(Cl)c2)C(F)(F)F)ccc1C(=O)NCC(=O)NCC(F)(F)F` (stereo not shown) [AC80], the “BAW Rating” value is reported as “A (50-100)”. With `Cc1cc(/C=C/C(c2cc(Cl)cc(Cl)c2)C(F)(F)F)ccc1C(=O)NCC(=O)NC1CS(=O)(=O)C1` (stereo not shown) [AC81], the “BAW Rating” value is on record as “A (50-100)”.
